Here are results for one compound from US20080085528A1, “G[…] ASSAYS FOR MEASURING KINETIC AND […]” (Bristol-Myers Squibb Company, priority 2006, published 2008).

Holding throughout (type): biochemical
One experiment addresses T1, human full-length GK (Homo sapiens, UniProt P35557).
T1 construct: human full-length GK (15 nM) was incubated with various concentrations of glucose
T1 sequence (P35557 1-466 isoform P35557-2): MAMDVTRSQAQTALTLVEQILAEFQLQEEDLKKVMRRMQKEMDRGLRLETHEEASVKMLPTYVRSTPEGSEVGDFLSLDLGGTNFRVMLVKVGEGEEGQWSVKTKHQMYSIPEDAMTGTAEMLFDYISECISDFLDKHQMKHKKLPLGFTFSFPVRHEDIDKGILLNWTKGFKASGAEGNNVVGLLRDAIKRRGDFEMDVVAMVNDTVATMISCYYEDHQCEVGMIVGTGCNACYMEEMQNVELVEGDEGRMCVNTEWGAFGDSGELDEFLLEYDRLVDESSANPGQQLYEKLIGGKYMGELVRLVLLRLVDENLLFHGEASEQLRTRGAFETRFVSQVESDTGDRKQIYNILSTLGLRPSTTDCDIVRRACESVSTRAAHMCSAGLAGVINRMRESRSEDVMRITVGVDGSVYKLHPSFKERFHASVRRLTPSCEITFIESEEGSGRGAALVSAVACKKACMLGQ
Put plainly: tandem assay with EDTA quench. The settings on record: 12 mM glucose. As for the experimental part: The protocol used is essentially as described above with some variation. Briefly, human full-length GK (15 nM) was incubated with various concentrations of glucose in the range from 0.33 to 50 mM in clear bottom 384 well microtiter plates. To initiate the GK reaction, Mg-ATP (3 mM final concentration) was added to the protein in buffer, under the final buffer conditions of 25 mM HEPES, pH 7.1, containing 1 mM DTT and 5% DMSO. The total reaction volume was 20 μl. The reaction was allowed to proceed for ten minutes and was then quenched with 5 μl EDTA (45 mM final).
The components of the secondary reaction, ThioNAD and G6PDH (final concentrations of 650 μM and 3.33 Units, respectively), were then added together in a volume of 25 μl, and a total volume of 50 μl. Absorbance was read and activation calculated as a percentage of background activity, i.e., GK in the presence of DMSO, with background G6P subtracted. Background G6P was determined by pre-quenching GK with EDTA prior to reaction initiation with ATP.
The tandem assay (EDTA quench) was used to assess the activity of GK in the presence of putative GK activator compounds. The above-described tandem assay protocol was followed using a range of activator compound concentrations from 0 to 100 μM.

Experiment [1] addresses T2, human hepatic GK (Homo sapiens, UniProt P35557).
T2 sequence (P35557 1-466 isoform P35557-2): T1 sequence (P35557 1-466 isoform P35557-2)
Put plainly: tandem assay (uncoupled G-6-P detection, heat stop). How it is done:
Purified human recombinant GK was used to measure the activation of GK activity by glucose and a GK activator (Compound “C”) in the tandem assay. A suitable vehicle (for instance 24% DMSO in pH 7.25 Tris buffer), with or without (control) a GK modulator of interest was incubated with GK (50 μl of a 24 nM stock solution) over a range of concentrations of glucose (for instance from 0.32 to 80 mM) for 30 minutes in a 96-well PCR plate (10 μl). The GK reaction was initiated by addition of Mg-ATP (20 μl). The solution used comprised 12 mM ATP and 16 mM MgCl2. The final assay conditions were 25 mM Tris, pH 7.25, 1 mM DTT and 3% DMSO, 15 nM GK, 3 mM ATP and 4 mM MgCl2. Glucose stock solution (IM) was diluted to generate a dilution series with final glucose concentrations of: 0.2, 0.4, 0.6, 0.8, 1, 1.5, 2, 3, 4, 5, 6, 8, 10, 12, 20 and 50 mM. The total reaction volume per well was about 80 μl.
The GK reaction proceeded for about 10 minutes, and was followed by heating the 96-well plate in a hot water bath (100° C.) for 30 seconds to stop the reaction. […] An aliquot of reaction mixture (typically 50 μl) was then transferred to a second 96 well plate suitable for taking absorbance measurements. […] The reagents and reaction mixture are mixed for 2 minutes, followed by measurement of the absorbance at 405 nm using a plate reader. […]

The target of experiment [2] is T2, human hepatic GK. Nature of the experiment: filtration-based assay (direct G-6-P capture by ion-exchange resin). Particulars: 12 mM glucose, FIG. 7. How it is done: Human full-length recombinant GK was used to measure the activation of GK. Human full-length GK (15 nM) was incubated with various concentrations of glucose in the range from 0.33 to 50 mM in the presence of tritiated glucose (3H-glucose [6-^3H], 0.33 μCi) in 96 well microtiter plates. To initiate the GK reaction, Mg-ATP (3 mM final) was added to the protein in buffer, under the final buffer conditions of 25 mM HEPES, pH 7.1, containing 1 mM DTT and 5% DMSO. The total reaction volume was 110 μl. The reaction was allowed to proceed for ten minutes (i.e., the linear portion of the reaction) and was then quenched with 100 mM formic acid (1:1). A 200 μl aliquot of the quenched reaction products was then transferred to wells in a 96-well MultiScreen-GV 96 filtration plate containing 100 μl/well of Bio-rad AG 1-X8 Resin, formate form. The resin was then washed with H2O (1 ml/well), and the GK reaction product (G-6-P) eluted with 1M ammonium formate, pH 5 (200 μl/well). A 50 μl aliquot of this eluate was added to an Optiplate white 96 well plate containing 200 μl of Microscint PS. The plate was sealed and shaken for 5 minutes, and read on a Topcount scintillation counter (Perkin Elmer). The raw counts were converted to product concentration by comparison of the raw counts in the sample wells to wells containing a standard curve having known concentrations of ^3H-glucose-6-phosphate. […]

Each structure is given as a SMILES string.

Broadly, the AC50 is the midpoint of the concentration-response curve, whichever way the signal moves. As for `CCOP(=O)(Cc1cnc(NC(=O)[C@H](CC2CCCC2)c2ccc(S(C)(=O)=O)cc2)cn1)OCC` [Compound A, (R)-diethyl (5-(3-cyclopentyl-2-(4-(methylsulfonyl)phenyl)propanamido)pyrazin-2-yl)methylphosphonate], the AC50 on human full-length GK (FIG. 10) was about 0.904 µM; at human hepatic GK [2] it was 7.1 µM. Moreover, the Emax on human full-length GK (FIG. 10, read-out: maximal activation of background GK activity) turned out to be 208%; at human hepatic GK [2] (read-out: maximal activation number (above background)), 228%. The “Kcat in the presence of GK activator” value at human hepatic GK [1] (20 uM activator, control 3% DMSO) was found to be 44 S^−1. The “KM compared to the controls” value at human hepatic GK [1] (in the presence of the activator, FIG. 8) is “substantially lower”.
